IC50 data for 7 compounds are collected here from ChEMBL document CHEMBL1151904, “Computer-aided rational molecular design of argifin-derivatives with increased inhibitory activity against chitinase B from Serratia marcescens” (Bioorg Med Chem Lett, 2009).

One may read the IC50 as the concentration at which inhibition is half-maximal. Low values mean greater potency in that assay, high ones weaker potency in that assay.

The assay has as its target T1, Chitinase B (Serratia marcescens, UniProt P11797).
T1 sequence (P11797 whole entry): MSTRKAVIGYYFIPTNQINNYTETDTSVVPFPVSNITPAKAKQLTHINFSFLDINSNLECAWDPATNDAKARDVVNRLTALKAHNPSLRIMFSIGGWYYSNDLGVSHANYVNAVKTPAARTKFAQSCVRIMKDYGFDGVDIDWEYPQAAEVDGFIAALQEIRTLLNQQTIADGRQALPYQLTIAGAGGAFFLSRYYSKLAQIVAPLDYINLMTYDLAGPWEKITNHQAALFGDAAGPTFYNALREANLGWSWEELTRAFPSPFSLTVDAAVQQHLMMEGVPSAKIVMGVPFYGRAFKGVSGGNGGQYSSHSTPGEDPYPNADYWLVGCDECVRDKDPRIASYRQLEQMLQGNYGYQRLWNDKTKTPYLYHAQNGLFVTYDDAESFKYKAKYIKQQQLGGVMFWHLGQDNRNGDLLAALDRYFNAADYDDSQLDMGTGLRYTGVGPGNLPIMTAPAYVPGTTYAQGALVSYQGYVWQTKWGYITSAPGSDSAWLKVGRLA
The experiment in a line: Inhibition of Serratia marcescens chitinase B.
On to `CNC(=O)NC(N)=NCCC[C@@H]1NC(=O)[C@@H](C)NC(=O)C[C@@H](C(=O)N2CCC(Cc3ccccc3)CC2)NC(=O)C[C@@H](C(=O)O)NC(=O)[C@H](Cc2ccccc2)N(C)C1=O`, for which the IC50 was found to be 1.3 µM. Take `CNC(=O)NC(N)=NCCC[C@@H]1NC(=O)[C@@H](Cc2ccccc2)NC(=O)C[C@@H](C(=O)O)NC(=O)C[C@@H](C(=O)O)NC(=O)[C@H](Cc2ccccc2)N(C)C1=O`: the concentration for half-maximal inhibition (IC50) was 9.9 µM. The value for `CNC(=O)NC(N)=NCCC[C@@H]1NC(=O)[C@@H](CC(C)C)NC(=O)C[C@@H](C(=O)O)NC(=O)C[C@@H](C(=O)O)NC(=O)[C@H](Cc2ccccc2)N(C)C1=O` was 1.9 µM; that for `CNC(=O)NC(=N)NCCC[C@@H]1NC(=O)[C@@H](Cc2c[nH]c3ccccc23)NC(=O)C[C@@H](C(=O)O)NC(=O)C[C@@H](C(=O)O)NC(=O)[C@H](Cc2ccccc2)N(C)C1=O` was 4.5 µM. Consider `CNC(=O)NC(N)=NCCC[C@@H]1NC(=O)[C@@H](C(C)C)NC(=O)C[C@@H](C(=O)O)NC(=O)C[C@@H](C(=O)O)NC(=O)[C@H](Cc2ccccc2)N(C)C1=O`, for which inhibition was half-maximal at 6.1 µM (IC50). The value for `CNC(=O)NC(N)=NCCC[C@@H]1NC(=O)[C@@H](CC(C)C)NC(=O)C[C@@H](C(=O)N2CCC(Cc3ccccc3)CC2)NC(=O)C[C@@H](C(=O)O)NC(=O)[C@H](Cc2ccccc2)N(C)C1=O` was 0.23 µM; that for `CNC(=O)NC(=N)NCCC[C@@H]1NC(=O)[C@@H](CCSC)NC(=O)C[C@@H](C(=O)O)NC(=O)C[C@@H](C(=O)O)NC(=O)[C@H](Cc2ccccc2)N(C)C1=O` was 10 µM.
